Source: US20070021509A1, “Phosphate transport inhibitors” (priority 2001, published 2007)

test system: phosphate uptake by rabbit intestinal Brush Border Membrane Vesicles (BBMV); assay: 33PO4 uptake in rabbit intestinal BBMV (HTS), phosphate transporter inhibition in vitro; type: biochemical; settings: Table 1, phosphate uptake, read-out: IC50
Method: The following example outlines the procedures required for in vitro measurement of the inhibition of phosphate uptake by rabbit intestinal Brush Border Membrane Vesicles (BBMV).
Rabbit Intestinal Brush Border Membrane Vesicles (BBMV) were isolated from mucosal scrapings of the upper small intestine (duodenum) of male New Zealand White rabbits. The scrapings were divided into 2 g aliquots in cryopreservation vials, frozen in liquid nitrogen, and stored at −80° C.
The following procedure was performed for each 2 g sample of BBMV mucosal scraping. Buffer volumes and container sizes were adjusted appropriately for the number of 2 g samples used. The entire preparation was performed on ice, unless otherwise stated.
Mucosal scrapings (2 g per tube) were thawed in a 37° C. water bath for 3 minutes and then placed on ice. The scrapings were suspended with a total of 7.5 ml of 300 MET, and transferred to a 250 mL Corning tube on ice. To the suspension was added 30 mL cold (4° C.) deionized water (dH20). The suspension was homogenized with a tissue homogenizer (Polytron) on high speed for 2 minutes. A stir bar and MgCl2 (81.3 mg) was added. The suspension was mixed well by inverting the closed tube. The suspension was stirred on ice, ensuring that a good vortex is achieved with the stir bar, for 40 minutes. The suspension was transferred to a chilled centrifuge tube and spun at 4000×g for 15 minutes. The supernatant was transferred to a new chilled centrifuge tube and spun at 32000×g for 30 minutes. The supernatant was discarded and the pellet was re-suspended with 34 mL cold 60 MET. The suspension was homogenized with a Dounce homogenizer with 8 strokes. The suspension was transferred to a fresh 250 mL Corning tube. A stir bar and 69.1 mg MgCl2 were added. The suspension was stirred well on ice for 10 minutes. The suspension was transferred to a chilled centrifuge tube and spun at 4000×g for 15 minutes. The supernatant was transferred to a new chilled centrifuge tube and spun at 32000×g for 30 minutes. The supernatant was discarded. At this stage, the preparation could be continued or this pellet (P4) could be frozen in liquid nitrogen and stored at −80° C. When needed, this pellet could be allowed to thaw at room temperature for 5 minutes. Continuing the preparation, the pellet was re-suspended with 34 mL cold 280 MH. The suspension was homogenized in a Dounce homogenize with 8 strokes. The suspension was transferred to a new chilled centrifuge tube and spun at 32000×g for 30 minutes. The supernatant was discarded. To the pellet was added 500 μL 280 MH and the pellet was re-suspended very carefully with a 1 mL tuberculin syringe with a 25-gauge needle with care not to create bubbles. Once the entire pellet was suspended, the suspension was transferred to a chilled 1.5 mL microfuge tube. The suspension was evenly dispersed by bringing the suspension up into the syringe through the 25-gauge needle, and back out again 8 times with care not to create bubbles. The total protein concentration was determined by performing a Bradford Protein Assay. Using that value, the BBMV were diluted with 280 MH to reach approximately 0.5-2.0 mg/mL. The solution was used as soon as possible for uptake studies.
The following experiment was performed using a Beckman Multimek 96-tip robotic pipettor. The following outlines the preparation required to screen one 96-well plate of compounds. However, multiple plates could be screened in one experiment.
To the “Uptake Buffers” was added ^33PO4 to reach 200,000 CPM/19 μL. The buffer solutions were stored at room temperature. The following control solutions were prepared and placed into appropriate wells of a polypropylene, 96-well V-bottom plate (“Hot Stock Plate”):
a. Maximum activity (MAX)−Na Uptake buffer+^33PO4 at 200,000 CPM/19 μL
b. Midline activity (MID)−MAX+100 μM KH2PO4, pH 7.4
c. Minimum activity (MIN)− K Uptake buffer+^33PO4 at 200,000 CPM/19 μL

Row | IC50 | SMILES
1 | 101 to 500 µM | O=C(O)c1cc(Br)ccc1NS(=O)(=O)c1ccccc1F [Compound 25]
2 | 101 to 500 µM | O=C(O)c1cc(Br)ccc1NS(=O)(=O)c1ccc(Cl)c([N+](=O)[O-])c1 [Compound 15]
3 | 501 to 1000 µM | COc1ccc(S(=O)(=O)Nc2ccc(Br)cc2C(=O)O)cc1 [Compound 37]

same assay, conditions: Table 2, phosphate uptake, read-out: IC50

Row | IC50 | SMILES
4 | 51 to 100 µM | COc1ccc(S(=O)(=O)Nc2ccc(Br)cc2C(=O)Nc2ccc(Cl)cc2Cl)cc1[N+](=O)[O-] [Compound 104]
5 | 101 to 500 µM | COc1ccccc1NC(=O)c1cc(Br)ccc1NS(=O)(=O)c1ccc(Cl)cc1 [Compound 89]
6 | 101 to 500 µM | O=C(Nc1ccccc1F)c1cc(Br)ccc1NS(=O)(=O)c1ccc(Cl)cc1 [Compound 88]
7 | 101 to 500 µM | O=C(Nc1ccc(-c2ccccc2)cc1)c1cc(Br)ccc1NS(=O)(=O)c1ccc(OC(F)(F)F)cc1 [Compound 73]
8 | 51 to 100 µM | O=C(Nc1ccccc1Br)c1cc(Br)ccc1NS(=O)(=O)c1ccc(OC(F)(F)F)cc1 [Compound 62]
9 | 51 to 100 µM | Cc1ccc(NC(=O)c2cc(Br)ccc2NS(=O)(=O)c2ccc(OC(F)(F)F)cc2)cc1 [Compound 57]
10 | 101 to 500 µM | O=C(NC1CCCc2ccccc21)c1cc(Br)ccc1NS(=O)(=O)c1ccc(OC(F)(F)F)cc1 (stereo not drawn) [Compound 76]
11 | 101 to 500 µM | O=C(Nc1ccccc1Cl)c1cc(Br)ccc1NS(=O)(=O)c1ccc(Cl)c([N+](=O)[O-])c1 [Compound 118]
12 | 101 to 500 µM | O=C(NCc1cc(C(F)(F)F)cc(C(F)(F)F)c1)c1cc(Br)ccc1NS(=O)(=O)c1ccc(OC(F)(F)F)cc1 [Compound 69]
13 | 51 to 100 µM | COc1ccc(S(=O)(=O)Nc2ccc(Br)cc2C(=O)Nc2cccc(Cl)c2)cc1[N+](=O)[O-] [Compound 101]
14 | < 50 µM | O=C(Nc1ccc(Br)cc1)c1cc(Br)ccc1NS(=O)(=O)c1ccc(OC(F)(F)F)cc1 [Compound 51]
15 | 51 to 100 µM | Cc1cccc(CNC(=O)c2cc(Br)ccc2NS(=O)(=O)c2ccc(OC(F)(F)F)cc2)c1 [Compound 58]
16 | 101 to 500 µM | O=C(NC1CCCCC1)c1cc(Br)ccc1NS(=O)(=O)c1ccc(OC(F)(F)F)cc1 [Compound 75]
17 | 101 to 500 µM | O=C(Nc1cccc(Br)c1)c1cc(Br)ccc1NS(=O)(=O)c1ccc(Cl)c([N+](=O)[O-])c1 [Compound 116]
18 | 101 to 500 µM | O=C(Nc1ccc(Cl)c(Cl)c1)c1cc(Br)ccc1NS(=O)(=O)c1cccc([N+](=O)[O-])c1 [Compound 125]
19 | > 1500 µM | O=C(Nc1cccc(Cl)c1)c1cc(Br)ccc1NS(=O)(=O)c1ccc(Cl)c([N+](=O)[O-])c1 [Compound 123]
20 | 51 to 100 µM | COc1ccc(S(=O)(=O)Nc2ccc(Br)cc2C(=O)Nc2ccccc2Br)cc1[N+](=O)[O-] [Compound 105]

same assay, conditions: Table 3, 100 μM compound

Row | SMILES | % Inhib. At 100 μM
21 | Nc1cc(Br)ccc1NS(=O)(=O)c1ccc(OC(F)(F)F)cc1 [Compound 150] | 57%
22 | O=S(=O)(Nc1ccccn1)c1ccc(OC(F)(F)F)cc1 [Compound 168] | 16%
23 | O=C(Nc1ccccc1Cl)c1cc(Br)ccc1NS(=O)(=O)c1ccc(Cl)cc1 [Compound 173] | 95%
24 | O=S(=O)(Nc1c(F)cc(Br)cc1F)c1ccc(OC(F)(F)F)cc1 [Compound 151] | 54%
25 | O=S(=O)(Nc1cccc(Cl)c1)c1ccc(OC(F)(F)F)cc1 [Compound 132] | 79%
26 | O=C(NCc1cccc(C(F)(F)F)c1)c1cc(Br)ccc1NS(=O)(=O)c1ccc(OC(F)(F)F)cc1 [Compound 172] | 96%
27 | Cc1ccc2c(c1)CCCN2S(=O)(=O)c1ccc(C(C)(C)C)cc1 [Compound 141] | 68%
28 | C[S+]([O-])c1ccc2c(c1)CCN2S(=O)(=O)c1cccc(C(F)(F)F)c1 (stereo not drawn) [Compound 157] | 37%
29 | O=C1OCc2ccc(NS(=O)(=O)c3ccc(C(F)(F)F)cc3)cc21 [Compound 161] | 29%
30 | O=c1sc2ccccc2n1S(=O)(=O)c1ccccc1 [Compound 148] | 60%
31 | Cc1ccc(S(=O)(=O)N2CCC(=O)c3ccc(Cl)cc32)cc1 [Compound 152] | 54%
32 | O=S(=O)(Nc1ccc(I)cc1F)c1ccc(OC(F)(F)F)cc1 [Compound 126] | 103%
33 | Cc1ccc(S(=O)(=O)n2cc(/C=C/C(=O)O)c3ccccc32)cc1 [Compound 154] | 52%

same assay, conditions: Table 4, phosphate uptake, read-out: IC50

Row | IC50 | SMILES
34 | > 1500 µM | CC(NC(=O)Nc1ccc(Br)cc1P(=O)(O)O)c1cccc2ccccc12 (stereo not drawn) [Compound 209]
35 | > 1500 µM | CC(C)c1ccc(NC(=O)Nc2ccc(Br)cc2P(=O)(O)O)cc1 [Compound 210]
36 | < 50 µM | O=C(Nc1cccc(C(F)(F)F)c1)Nc1ccc(Br)cc1P(=O)(O)O [Compound 178]
37 | 501 to 1000 µM | O=C(Nc1cccc(Cl)c1)Nc1ccc(Br)cc1P(=O)(O)O [Compound 195]
38 | 51 to 100 µM | O=C(Nc1ccc(Br)cc1P(=O)(O)O)Nc1cccc2ccccc12 [Compound 183]
39 | 501 to 1000 µM | COc1cccc(NC(=O)Nc2ccc(Br)cc2P(=O)(O)O)c1 [Compound 203]
40 | 101 to 500 µM | O=C(Nc1ccc(F)c(C(F)(F)F)c1)Nc1ccc(Br)cc1P(=O)(O)O [Compound 188]
41 | 101 to 500 µM | O=C(Nc1ccc(Br)cc1P(=O)(O)O)Nc1cccc(Cl)c1Cl [Compound 187]

same assay, conditions: Table 5, 100 μM compound

Row | SMILES | % Inhib. at 100 μM
42 | O=C(Nc1cccc(C(F)(F)F)c1)Nc1ccc(Br)cc1P(=O)(O)O [Compound 230] | 49%
43 | O=C(Nc1cccc(C(F)(F)F)c1)Nc1cccc(Cl)c1Cl [Compound 215] | 96%

same assay, conditions: Table 6, 100 μM compound

Row | SMILES | % Inhib. at 100 μM
44 | Oc1ccc(-c2cc(-c3ccco3)on2)cc1 [Compound 236] | 41%

same assay, conditions: Table 7, phosphate uptake, read-out: IC50

Row | IC50 | SMILES
45 | 101 to 500 µM | COc1ccc(-c2cc(-c3cccc(F)c3)n(C)n2)cc1 [Compound 239]

same assay, conditions: Table 8, 100 μM compound

Row | SMILES | % Inhib. at 100 μM
46 | CCCCCCCc1ccc(C(=O)Nc2ccc(Br)cc2P(=O)(OCC)OCC)cc1 [Compound 247] | 53%

same assay, conditions: Table 10, phosphate uptake, read-out: IC50

Row | SMILES | IC50
47 | CCOP(=O)(OCC)c1cc(Br)ccc1NC(=O)c1cc(F)c(Cl)cc1Cl [Compound 262] | 101 to 500 µM
48 | CCOP(=O)(OCC)c1cc(Br)ccc1NC(=O)c1ccc(F)cc1F [Compound 260] | 101 to 500 µM
49 | O=C(Nc1ccc(Cl)c(Cl)c1)c1cc(Cl)cc(Cl)c1O [Compound 252] | 51 to 100 µM

same assay, conditions: Table 11, phosphate uptake, read-out: IC50

Row | IC50 | SMILES
50 | 501 to 1000 µM | O=C(CCc1ccc(O)cc1)c1c(O)cc(O)cc1O [Compound 273]
51 | 501 to 1000 µM | O=C(/C=C/c1ccco1)c1cccc(O)c1 [Compound 274]

same assay, conditions: Table 12, 100 μM compound

Row | SMILES | % Inhib. at 100 μM
52 | Cc1ccc(S(=O)(=O)Cc2c(Cl)cccc2Cl)cc1 [Compound 281] | 53%

same assay, conditions: Table 13, phosphate uptake, read-out: IC50

Row | SMILES | IC50
53 | O=S(=O)(O)c1cc(NS(=O)(=O)c2cccc(C(F)(F)F)c2)ccc1/C=C/c1ccc(NS(=O)(=O)c2cccc(C(F)(F)F)c2)cc1S(=O)(=O)O [Compound 296] | 101 to 500 µM
54 | Cc1ccc(S(=O)(=O)Nc2ccc(/C=C/c3ccc(NS(=O)(=O)c4ccc(C)c([N+](=O)[O-])c4)cc3S(=O)(=O)O)c(S(=O)(=O)O)c2)cc1[N+](=O)[O-] [Compound 309] | > 1500 µM
55 | O=S(=O)(O)c1cc(NS(=O)(=O)c2ccc(-c3ccccc3)cc2)ccc1/C=C/c1ccc(NS(=O)(=O)c2ccc(-c3ccccc3)cc2)cc1S(=O)(=O)O [Compound 298] | 501 to 1000 µM
56 | O=[N+]([O-])c1cccc(S(=O)(=O)Nc2ccc(/C=C/c3ccc(NS(=O)(=O)c4cccc([N+](=O)[O-])c4)cc3S(=O)(=O)O)c(S(=O)(=O)O)c2)c1 [Compound 297] | 101 to 500 µM
57 | O=[N+]([O-])c1ccc(/C=C/c2ccc([N+](=O)[O-])cc2S(=O)(=O)O)c(S(=O)(=O)O)c1 [Compound 305] | 1000 to 1500 µM
